Laboratory results published in US9375404B2 (Duchesnay Inc., priority 2012, dated 2016).
One block for each compound: values may come before it.

Test: clinical
Settings: human, in vivo
Procedure: Data are from bioavailability studies in healthy volunteers. 5 mg: 12 healthy men, 20 mg: 42 healthy women, 25 mg: 12 healthy women, 40 mg: 18 healthy women;

bioavailability at steady-state: significant bioavailability increases
change in Cmax and AUC: significant increase
change in T1/2: significant lengthening
dose vs. Cmax relationship (linearity of pharmacokinetics): increase more than expected
SMILES: Cc1ncc(CO)c(C=O)c1O [pyridoxal]

half-life (half-life): ~12 h
SMILES: CN(C)CCOC(C)(c1ccccc1)c1ccccn1 (centres unmarked) [doxylamine, reference compound]

amount unchanged in blood: about 1%
availability with increasing dose: availability is not increased
dose vs. Cmax relationship (linearity of pharmacokinetics): Cmax increases less than expected
inter subject and inter study variations: significantly higher
metabolism: rapidly metabolized
SMILES: Cc1ncc(CO)c(CO)c1O [pyridoxine, reference compound]

availability among pyridoxine metabolites: most available active metabolite
dose vs. Cmax relationship (linearity of pharmacokinetics): increase more than expected
half-life: 60 h
SMILES: Cc1ncc(COP(=O)(O)O)c(C=O)c1O [PLP, pyridoxal 5-phosphate]
persistence in the systemic circulation: remaining in the systemic circulation the longest
